Test results reported in BindingDB's records for doi:10.1016/S0960-894X(98)00531-9 (Glaxo Wellcome Research and Development, 1999).

Experiments:
[1] = Compound was evaluated for the inhibition of Chymotrypsinogen
[2] = target: T1, Chymotrypsin-C (Homo sapiens, UniProt Q99895); assay: ChEBML_49751
T1 sequence (Q99895 whole entry): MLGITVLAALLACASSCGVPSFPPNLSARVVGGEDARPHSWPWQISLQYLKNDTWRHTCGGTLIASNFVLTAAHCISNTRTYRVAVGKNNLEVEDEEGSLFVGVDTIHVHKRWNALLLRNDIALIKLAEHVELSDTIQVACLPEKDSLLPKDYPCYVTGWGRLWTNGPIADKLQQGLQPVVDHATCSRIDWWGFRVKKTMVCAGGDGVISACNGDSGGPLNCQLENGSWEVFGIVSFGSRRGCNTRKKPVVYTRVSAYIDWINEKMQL
Description: Compound was evaluated for the inhibition of Chymotrypsinogen

Compound	IC50 [1]	IC50 [2]
O=C1O[C@H]2CCC[C@@H]2[C@@H]1Cc1ccccc1 [(3S,3aR,6aS)-3-Benzyl-hexahydro-cyclopenta[b]furan-2-one]	> 100 µM	
O=C1O[C@H]2CCC[C@@H]2[C@@H]1Sc1ccccc1 [(3S,3aS,6aS)-3-Phenylsulfanyl-hexahydro-cyclopenta[b]furan-2-one]	> 100 µM	
O=C1O[C@H]2CCC[C@@H]2[C@H]1Sc1ccccc1 [(3R,3aS,6aS)-3-Phenylsulfanyl-hexahydro-cyclopenta[b]furan-2-one]	> 0.1 µM	
N=C(N)CCCC[C@H]1C(=O)O[C@H]2CCC[C@@H]21	> 100 µM	
CC(C)=CC(=O)C[C@@H]1C(=O)O[C@H]2CCC[C@@H]21 [(3S,3aR,6aS)-3-(4-Methyl-2-oxo-pent-3-enyl)-hexahydro-cyclopenta[b]furan-2-one]	> 100 µM	

Next, values leading:

IC50 [1]	IC50 [2]	Compound
	> 100 µM	N=C(N)c1ccc(C[C@H]2C(=O)O[C@H]3CCC[C@@H]32)cc1 [4-((3R,3aR,6aS)-2-Oxo-hexahydro-cyclopenta[b]furan-3-ylmethyl)-benzamidine; compound with acetic acid]
> 100 µM		O=C1O[C@H]2CCC[C@@H]2[C@H]1Cc1ccccc1 [(3R,3aR,6aS)-3-Benzyl-hexahydro-cyclopenta[b]furan-2-one]
> 100 µM		N=C(N)c1cccc(C[C@H]2C(=O)O[C@H]3CCC[C@@H]32)c1 [3-((3R,3aR,6aS)-2-Oxo-hexahydro-cyclopenta[b]furan-3-ylmethyl)-benzamidine; compound with acetic acid]
